We go through 4 compounds from PubChem BioAssay (NCI).

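A five-concentration, 48-hour dose response in 96-well plates underlies each endpoint, interpolated linearly between surrounding concentrations. TGI: concentration producing complete growth inhibition.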

Among the test systems are DMS 273 small cell lung; LXFL 529 NSCLC; DMS 114 small cell lung; SNB-78 CNS; KM20L2 colon; M19-MEL melanoma; HOP-18 NSCLC; XF 498 CNS.
Assay in all cases: growth of human tumour cells (NCI), 48 h

For the compound `Cc1c2n(c(=O)[nH]c1=O)C1OC(CO)C(O2)C1N=[N+]=[N-]` (configuration not stated), the TGI in the assay with DMS 273 small cell lung, with LXFL 529 NSCLC, with DMS 114 small cell lung, with SNB-78 CNS, in the assay with KM20L2 colon and with M19-MEL melanoma was greater than 100 µM in each case.

Regarding `C[n+]1c2ccccc2c(NCC(=O)O)c2ccccc21`, the TGI in the assay on DMS 273 small cell lung, with LXFL 529 NSCLC, with DMS 114 small cell lung, in the assay on HOP-18 NSCLC, in the assay on SNB-78 CNS and in the assay on KM20L2 colon was greater than 100 µM in each case. Moreover, the TGI with M19-MEL melanoma was greater than 100 µM.

Consider `S=C1NCCN1`, for which the TGI in the assay with DMS 273 small cell lung, in the assay on LXFL 529 NSCLC, with DMS 114 small cell lung, in the assay with XF 498 CNS, in the assay with SNB-78 CNS and in the assay with KM20L2 colon was greater than 100 µM throughout. Besides, the TGI with M19-MEL melanoma was greater than 100 µM.

Consider `COc1cc2c(c(OC)c1O)-c1ccc(SC)c(=O)cc1C(NC(C)=O)CC2` (configuration not stated), for which the TGI in the assay on DMS 273 small cell lung is greater than 100 µM; in the assay with LXFL 529 NSCLC, greater than 100 µM; in the assay with DMS 114 small cell lung, less than 0.0143 µM; with HOP-18 NSCLC it was greater than 100 µM; with SNB-78 CNS it was greater than 100 µM; in the assay on KM20L2 colon, 0.0246 µM. In the assay on M19-MEL melanoma, this compound came in with a TGI greater than 100 µM.
